The target of assay [1] is T1, p110α Type Ia human PI3K (Homo sapiens, UniProt P42336).
T1 construct: full length DNA of each of the p110α, p110β and p110δ Type Ia human PI3K p110 isoforms; 6-His; made in house; Grp1 PH domain in E. coli
Briefly: In vitro enzyme assay (AlphaScreen), Test (a). It counts as biochemical. The note with it: recombinant enzyme, PI(4,5)P2 substrate, ATP 4 μM, read-out: IC50 versus p110α Type Ia human PI3K. An excerpt:
(a) In Vitro Enzyme Assay
The assay used AlphaScreen technology (Gray et al., Analytical Biochemistry, 2003, 313: 234-245) to determine the ability of test compounds to inhibit phosphorylation by recombinant Type I PI3K enzymes of the lipid PI(4,5)P2.
DNA fragments encoding human PI3K catalytic and regulatory subunits were isolated from cDNA libraries using standard molecular biology and PCR cloning techniques. The selected DNA fragments were used to generate baculovirus expression vectors. In particular, full length DNA of each of the p110α, p110β and p110δ Type Ia human PI3K p110 isoforms (EMBL Accession Nos. HSU79143, S67334, Y10055 for p110α, p110β and p110δ respectively) were sub-cloned into a pDEST10 vector (Invitrogen Limited, Fountain drive, Paisley, UK). The vector is a Gateway-adapted version of Fastbac1 containing a 6-His epitope tag. A truncated form of Type Ib human PI3K p110γ isoform corresponding to amino acid residues 144-1102 (EMBL Accession No. X8336A) and the full length human p85α regulatory subunit (EMBL Accession No. HSP13KIN) were also sub-cloned into pFastBac1 vector containing a 6-His epitope tag. The Type Ia p110 constructs were co-expressed with the p85α regulatory subunit. Following expression in the baculovirus system using standard baculovirus expression techniques, expressed proteins were purified using the His epitope tag using standard purification techniques.
DNA corresponding to amino acids 263 to 380 of human Grp1 PH domain was isolated from a cDNA library using standard molecular biology and PCR cloning techniques. The resultant DNA fragment was sub-cloned into a pGEX 4T1 E. coli expression vector containing a GST epitope tag (Amersham Pharmacia Biotech, Rainham, Essex, UK) as described by Gray et al., Analytical Biochemistry, 2003, 313: 234-245). The GST-tagged Grp1 PH domain was expressed and purified using standard techniques.
Test compounds were prepared as 10 mM stock solutions in DMSO and diluted into water as required to give a range of final assay concentrations. Aliquots (2 μl) of each compound dilution were placed into a well of a Greiner 384-well low volume (LV) white polystyrene plate (Greiner Bio-one, Brunel Way, Stonehouse, Gloucestershire, UK Catalogue No. 784075). […]
Biotinylated-DiC8-PI(3,4,5)P3 (50 nM; Cell Signals Inc., Catalogue No. 107), recombinant purified GST-Grp1 PH protein (2.5 nM) and AlphaScreen Anti-GST donor and acceptor beads (100 ng; Packard Bioscience Limited, Station Road, Pangbourne, Berkshire, UK, Catalogue No. 6760603M) were added and the assay plates were left for about 5 to 20 hours at ambient temperature in the dark. The resultant signals arising from laser light excitation at 680 nm were read using a Packard AlphaQuest instrument. […]
In general terms: In Alpha technology, singlet oxygen from a donor bead excites a nearby acceptor bead.

The test system of assay [2] is phosphorylation of Serine 473 in Akt. The assay can be described thus: In vitro phospho-Ser473 Akt assay, Test (b). It counts as cell-based. Conditions: Homo sapiens, MDA-MB-468 cells, 2 hours incubation, read-out: IC50, inhibition of phosphorylation of Serine 473 in Akt. As to the method: (b) In Vitro Phospho-Ser473 Akt Assay
This assay determines the ability of test compounds to inhibit phosphorylation of Serine 473 in Akt as assessed using Acumen Explorer technology (Acumen Bioscience Limited), a plate reader that can be used to rapidly quantitate features of images generated by laser-scanning.
A MDA-MB-468 human breast adenocarcinoma cell line (LGC Promochem, Teddington, Middlesex, UK, Catalogue No. HTB-132) was routinely maintained at 37° C. with 5% CO2 up to a confluency of 70-90% in Dulbecco's modified Eagle's growth medium (DMEM; Invitrogen Limited, Paisley, UK Catalogue No. 41966-029) containing 10% heat-inactivated foetal calf serum (FCS; Sigma, Poole, Dorset, UK, Catalogue No. F0392) and 1% L-glutamine (Gibco, Catalogue No. 25030-024).
For the assay, the cells were detached from the culture flask using ‘Accutase’ (Innovative Cell Technologies Inc., San Diego, Calif., USA; Catalogue No. AT104) using standard tissue culture methods and resuspended in media to give 1.7×10^5 cells per ml. Aliquots (90 μl) were seeded into each of the inner 60 wells of a black Packard 96 well plate (PerkinElmer, Boston, Mass., USA; Catalogue No. 6005182) to give a density of ˜15000 cells per well. Aliquots (90 μl) of culture media were placed in the outer wells to prevent edge effects. The cells were incubated overnight at 37° C. with 5% CO2 to allow them to adhere.
On day 2, the cells were treated with test compounds and incubated for 2 hours at 37° C. with 5% CO2. Test compounds were prepared as 10 mM stock solutions in DMSO and serially diluted as required with growth media to give a range of concentrations that were 10-fold the required final test concentrations. Aliquots (10 μl) of each compound dilution were placed in a well (in triplicate) to give the final required concentrations. […]
All subsequent aspiration and wash steps were carried out using a Tecan 96 well plate washer (aspiration speed 10 mm/sec). […] An aliquot of PBS (50 μl) was added to each well and the plates were sealed with black plate sealers and the fluorescence signal was detected and analysed. […]

The text below walks through data of patent US7893063B2, “2,4,6-trisubstituted pyrimidines as phosphotidylinositol (PI) 3-kinase inhibitors and their use in the treatment of cancer” (AstraZeneca AB, priority 2004, dated 2011).

By IC50 is commonly meant the point on the concentration scale where inhibition reaches its midpoint.

T1 sequence (P42336 whole entry, the tested form may be a part, canonical isoform): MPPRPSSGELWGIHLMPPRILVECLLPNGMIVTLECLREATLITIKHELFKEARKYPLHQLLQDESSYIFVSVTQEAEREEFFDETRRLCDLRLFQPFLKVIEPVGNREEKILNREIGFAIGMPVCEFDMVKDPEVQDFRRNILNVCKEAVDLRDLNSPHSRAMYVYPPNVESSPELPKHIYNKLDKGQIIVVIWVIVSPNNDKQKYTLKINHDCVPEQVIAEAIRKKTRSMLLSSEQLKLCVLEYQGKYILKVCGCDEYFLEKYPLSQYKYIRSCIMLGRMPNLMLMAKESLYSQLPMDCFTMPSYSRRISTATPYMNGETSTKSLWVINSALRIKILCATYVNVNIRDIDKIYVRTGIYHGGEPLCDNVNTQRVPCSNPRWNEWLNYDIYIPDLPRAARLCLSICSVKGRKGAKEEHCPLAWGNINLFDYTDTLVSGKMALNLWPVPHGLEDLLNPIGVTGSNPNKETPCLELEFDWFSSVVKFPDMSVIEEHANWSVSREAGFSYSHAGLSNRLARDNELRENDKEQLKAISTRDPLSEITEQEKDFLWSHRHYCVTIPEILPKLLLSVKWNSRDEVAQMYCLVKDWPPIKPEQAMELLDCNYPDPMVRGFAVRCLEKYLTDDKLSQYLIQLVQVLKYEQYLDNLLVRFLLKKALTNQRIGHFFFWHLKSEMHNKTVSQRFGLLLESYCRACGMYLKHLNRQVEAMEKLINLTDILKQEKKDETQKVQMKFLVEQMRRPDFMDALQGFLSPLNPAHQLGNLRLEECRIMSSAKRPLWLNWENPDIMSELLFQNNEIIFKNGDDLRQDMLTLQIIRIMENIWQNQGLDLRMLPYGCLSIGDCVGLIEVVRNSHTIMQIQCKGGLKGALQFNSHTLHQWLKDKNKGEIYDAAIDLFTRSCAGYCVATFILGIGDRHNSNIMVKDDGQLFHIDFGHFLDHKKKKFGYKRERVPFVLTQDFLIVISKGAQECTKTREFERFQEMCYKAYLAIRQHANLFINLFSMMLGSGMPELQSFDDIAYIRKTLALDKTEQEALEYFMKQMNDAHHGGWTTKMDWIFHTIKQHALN
T1 sequence (P27986 whole entry partner, the tested form may be a part, canonical isoform): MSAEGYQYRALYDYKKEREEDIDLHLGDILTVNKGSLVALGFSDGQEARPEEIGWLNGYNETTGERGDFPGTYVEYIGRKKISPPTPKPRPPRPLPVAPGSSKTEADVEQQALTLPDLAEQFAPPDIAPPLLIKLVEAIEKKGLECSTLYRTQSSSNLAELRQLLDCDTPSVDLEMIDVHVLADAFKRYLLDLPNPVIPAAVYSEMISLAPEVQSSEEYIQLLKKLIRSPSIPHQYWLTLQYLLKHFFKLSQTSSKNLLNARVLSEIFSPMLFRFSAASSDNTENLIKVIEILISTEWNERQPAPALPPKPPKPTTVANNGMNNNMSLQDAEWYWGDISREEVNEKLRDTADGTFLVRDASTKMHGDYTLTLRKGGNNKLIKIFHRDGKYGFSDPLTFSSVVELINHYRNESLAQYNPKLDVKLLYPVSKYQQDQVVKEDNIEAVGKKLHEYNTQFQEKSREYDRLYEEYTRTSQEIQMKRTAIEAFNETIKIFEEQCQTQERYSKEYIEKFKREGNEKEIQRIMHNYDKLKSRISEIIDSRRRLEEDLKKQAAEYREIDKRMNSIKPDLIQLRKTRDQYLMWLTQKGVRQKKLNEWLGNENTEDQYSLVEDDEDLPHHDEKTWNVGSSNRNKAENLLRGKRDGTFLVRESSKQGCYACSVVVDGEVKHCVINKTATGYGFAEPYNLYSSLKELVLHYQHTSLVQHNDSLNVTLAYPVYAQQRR

As to `O=C(Nc1cccc(-c2cc(N3CCOCC3)nc(-c3ccc(CO)o3)n2)c1)C1CCCNC1` (stereo not shown) [Example 4, 2-(5-hydroxymethylfuran-2-yl)-6-morpholino-4-(3-piperidin-3-ylcarbonylaminophenyl)pyrimidine], in assay [1], the 50% inhibitory concentration (IC50) was about 0.6 µM.
For `O=C(Nc1cccc(-c2nc(-c3ccc(CO)o3)cc(N3CCOCC3)n2)c1)C1CCNCC1` [Example 5, 4-(5-hydroxymethylfuran-2-yl)-6-morpholino-2-(3-piperidin-4-ylcarbonylaminophenyl)pyrimidine], the IC50 was about 0.5 µM in assay [1] and about 1 µM in assay [2].
In the case of `O=C(Nc1cccc(-c2nc(-c3ccc(CO)s3)cc(N3CCOCC3)n2)c1)C1CCNCC1` [Example 1, 4-(5-hydroxymethylthien-2-yl)-6-morpholino-2-(3-piperidin-4-ylcarbonylaminophenyl)pyrimidine], the IC50 in assay [1] was about 10 µM; in assay [2], about 50 µM.
Taken in the same sequence, the figures for `COc1ncc(-c2cc(N3CCOCC3)nc(-c3cccc(NC(C)=O)c3)n2)cn1` [Example 2, 2-(3-acetamidophenyl)-4-(2-methoxypyrimidin-5-yl)-6-morpholinopyrimidine] were about 12 µM and about 28 µM.
